In patent US9371324B2, “Substituted pyrido[3′,4′:4,5]pyrrolo[1,2,3-de]quinoxalines for the treatment of nervous system disorders” (INTRA-CELLULAR THERAPIES, INC., priority 2010, dated 2016):
Like-named read-outs stand apart in the source and are kept apart here.

Assays:
[1] = Single dose oral bioavailability and pharmacokinetic study in Sprague Dawley rats; type: in vivo, Sprague Dawley rat; details: for AUC(0-t) / Cmax / Tmax / half-life: Sprague Dawley (Crl:CD(SD)BR), rat, plasma, mean, after single oral 30 mg/kg of Example 1, label = analyte; for half-life: read-out: t½ (converted); for Course of plasma concentration over time: rats, after oral Example 1, 30 mg/kg, over 8 hours
Procedure: Animals are Used for the Study:
• Strain/Species: Sprague Dawley (Crl:CD®(SD)BR) Rat • Sex: Male and Female • Age at Receipt: 7-8 weeks • Weight Range: 225-300 g • Number of Animals on Study: 3 Males and 3 Females Preparation of Dosage Formulation
The suspension is prepared by placing the required amount of methylcellulose in deionized water in a glass container. The suspension are kept stirring with a magnetic stirrer until completion of daily dosing. The dose suspensions are prepared on the day of dosing for each test article group.
A total of 3 male and 3 female rats are dosed at 30 mg/kg. Blood samples are collected at 0.30 min, 1, 4 and 8 h after dosing. Plasma samples are analyzed to determine plasma concentrations of the Compound of Example 1, the Compound of Formula Q wherein X is —N(CH3)— and Y is —C(═O), and the Compound of Formula Q wherein X is —N(H)— and Y is —C(═O). The pharmacokinetic profile is determined using WinNonlin.
Animals are anesthetized with isoflurane, and whole blood (˜0.5 mL/time point) is collected from the orbital sinus utilizing a glass capillary tube on the first day of treatment at the following times: 0.30 min, 1, 4 and 8 h after dosing. Whole blood (˜0.5 mL) is collected into chilled plastic tubes containing sodium heparin as supplied by the manufacturer. The blood collection tubes are mixed several times by manual inversion or gentle vortexing and stored on wet ice until centrifugation. The blood is centrifuged (˜2700 g, ˜10 min, ˜5° C.). Plasma is transferred with disposable plastic pipettes to plastic vials and stored at approximately −70° C. until analyzed.

[2] = tested on: dopamine receptors; assay: Step-down latency test; type: in vivo; details: mice; oral; tests at 120, 180, 240 and 360 minutes; FIG. 2
Procedure: Drugs that antagonize dopamine receptors in the brain slow motor behavior and can induce a cataleptic state. This activity can be assessed in mice using a simple step down latency test. In this test, mice are held by the tail, and the rodents forepaws are placed on a rod and its hindpaws placed on the bench top. The time for forepaws to step down from the rod is then measured. A maximum of 2 min is allowed at which time the animal is taken away from the rod and returned to the home cage. The compound of Example 1 or haloperidol (used as a positive control) is administered orally 120 minutes before the first test. Step down latency tests are conducted at 120, 180, 240, and 360 minutes after the administration of the compound of Example 1 or haloperidol. After each test mice are returned to their cages. The results are show in FIG. 2.

[3] = tested on: 5-HT2 receptor; assay: DOI-induced head twitch test in mice; type: in vivo; details: oral
Excerpt: When administered to mice, it produces a behavioral profile associated with frequent head twitches. The frequency of these head twitches during a predetermined period of time can be taken as an estimate of 5-HT2 receptor agonism in the brain. Conversely, this behavioral assay can be used to determine 5-HT2 receptor antagonism in the brain by administering the DOI with or without an antagonist and recording the reduction in DOI-induced head twitches after the administration of the antagonist.
The method of Darmani et al., Pharmacol Biochem Behav. (1990) 36:901-906 (the contents of which are incorporated by reference in their entirety) is used with some modifications. (±)-DOI HCl is injected subcutaneously and the mice are immediately placed in a conventional plastic cage. The number of head twitches is counted during 6 min, beginning 1 min after DOI administration. The compound of Example 1 is administered orally 0.5 hr before the injection of DOI.

[4] = molecular target: SERT (Homo sapiens, UniProt P31645); assay: biochemical
SERT, sequence (P31645 whole entry): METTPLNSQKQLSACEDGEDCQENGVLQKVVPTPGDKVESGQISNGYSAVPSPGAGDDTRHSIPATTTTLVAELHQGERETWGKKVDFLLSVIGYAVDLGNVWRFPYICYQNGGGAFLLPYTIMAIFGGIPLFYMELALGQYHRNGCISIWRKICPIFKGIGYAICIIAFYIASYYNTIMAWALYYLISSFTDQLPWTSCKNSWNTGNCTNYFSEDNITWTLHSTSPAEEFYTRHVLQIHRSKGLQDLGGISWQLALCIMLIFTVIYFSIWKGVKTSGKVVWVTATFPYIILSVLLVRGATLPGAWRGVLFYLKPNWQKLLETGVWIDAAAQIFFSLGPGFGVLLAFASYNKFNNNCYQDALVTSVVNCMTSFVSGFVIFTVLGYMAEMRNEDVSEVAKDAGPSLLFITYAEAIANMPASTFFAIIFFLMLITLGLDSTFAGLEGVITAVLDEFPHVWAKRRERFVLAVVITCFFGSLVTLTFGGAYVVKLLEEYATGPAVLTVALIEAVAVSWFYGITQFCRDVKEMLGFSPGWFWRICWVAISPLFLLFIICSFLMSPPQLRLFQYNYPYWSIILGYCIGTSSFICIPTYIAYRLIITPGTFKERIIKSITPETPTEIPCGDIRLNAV

[5] = molecular target: T1, serotonin reuptake transport (SERT) (Homo sapiens, UniProt P31645); assay: Inhibition of serotonin uptake in a human platelet assay using tritiated serotonin; type: cell-based
T1 construct: endogenous in cells; host or cells: human platelets
T1 sequence (P31645 whole entry): as above

[6] = Hydrolysis of Example 4 in EDTA-containing rat whole blood; type: in vitro ADME; details: for Concentration: Example 4 incubated in rat whole blood at 37 degrees, HPLC-MS

CN1CCN2c3c(cccc31)[C@@H]1CN(CCCC(=O)c3ccc(F)cc3)CC[C@@H]12
AUC(0-t) ([1]; female rats): 71 ng·h/mL
Cmax ([1]; female rats): 11.8 ng/mL
Tmax ([1]; female rats): 1 h
half-life ([1]; female rats): 23.4 h
AUC(0-t) ([1]; male rats): 54.5 ng·h/mL
Cmax ([1]; male rats): 4.85 ng/mL
Tmax ([1]; male rats): 0.75 h
half-life ([1]; male rats): 12.1 h
Course of plasma concentration over time [1]: maintained over 8 hours

O=C(CCCN1CC[C@H]2[C@@H](C1)c1cccc3c1N2CCN3)c1ccc(F)cc1
AUC(0-t) ([1]; female rats): 89.7 ng·h/mL
Cmax ([1]; female rats): 12.8 ng/mL
Tmax ([1]; female rats): 5.33 h
AUC(0-t) ([1]; male rats): 37.4 ng·h/mL
Cmax ([1]; male rats): 5.84 ng/mL
Tmax ([1]; male rats): 1 h
half-life ([1]; male rats): 17.8 h
Course of plasma concentration over time [1]: maintained over 8 hours

CN1CCN2c3c(cccc31)[C@@H]1CN(CCCC(O)c3ccc(F)cc3)CC[C@@H]12 (stereo partly shown) [Example 1]
Effect on step down latency [2]: significantly and dose dependently increased step down latency
IC50 for reducing DOI-induced head twitches ([3]; 0.5 hr before DOI, twitches counted during 6 min): 0.31 mg/kg
Effect on DOI-induced head twitches ([3]; before DOI, FIG. 1): significantly and dose dependently reduced head twitches
Ki [4]: 71 nM
AUC(0-t) ([1]; female rats): 767 ng·h/mL
Cmax ([1]; female rats): 144 ng/mL
Tmax ([1]; female rats): 3.33 h
half-life ([1]; female rats): 11.6 h
AUC(0-t) ([1]; male rats): 421 ng·h/mL
Cmax ([1]; male rats): 91.6 ng/mL
Tmax ([1]; male rats): 0.83 h
half-life ([1]; male rats): 5.83 h
Course of plasma concentration over time [1]: generally decreases over time
Ki [5]: 1500 nM
SERT inhibitory activity ([5]; imipramine as reference, compared with the corresponding keto compound of Formula Q): potent SERT inhibitory activity
Concentration ([6]; 5 min): 8.43 µM
Concentration ([6]; 10 min): 12.02 µM
Concentration ([6]; 15 min): 13.42 µM
Concentration ([6]; 30 min): 19.21 µM
Concentration ([6]; 60 min): 24.66 µM
Concentration ([6]; 90 min): 33.31 µM

CCCC(=O)OC(CCCN1CC[C@H]2[C@@H](C1)c1cccc3c1N2CCN3C)c1ccc(F)cc1 (stereo partly shown) [Example 4]
Concentration ([6]; 0 min): 52.84 µM
Concentration ([6]; 5 min): 24.92 µM
Concentration ([6]; 10 min): 18.51 µM
Concentration ([6]; 15 min): 9.21 µM
Concentration ([6]; 30 min): 7.06 µM
Concentration ([6]; 60 min): 2.74 µM
Concentration ([6]; 90 min): 1.75 µM
Cleavage of the ester in blood ([6]; rat whole blood, during 90 minutes): steadily cleaved back to the compound of Example 1
